ChEMBL document CHEMBL1158639, “Synthesis and in vivo evaluation of [11C]MPTQ: a potential PET tracer for alpha2A-adrenergic receptors” (Bioorg Med Chem Lett, 2010)

Experiments:
[1] = Metabolic stability in baboon brain assessed as compound remaining at 4.43 mCi after 30 mins; assay type: ADME, tissue-based; conditions: papio anubis, read-out: Stability
[2] = Metabolic stability in baboon brain assessed as compound remaining at 4.43 mCi after 90 mins; assay type: ADME, tissue-based; conditions: papio anubis, read-out: Stability
[3] = target: T1, Alpha-2C adrenergic receptor (Homo sapiens, UniProt P18825); assay: Displacement of [3H]rauwolscine from adrenergic Alpha-2C receptor
T1 sequence (P18825 whole entry): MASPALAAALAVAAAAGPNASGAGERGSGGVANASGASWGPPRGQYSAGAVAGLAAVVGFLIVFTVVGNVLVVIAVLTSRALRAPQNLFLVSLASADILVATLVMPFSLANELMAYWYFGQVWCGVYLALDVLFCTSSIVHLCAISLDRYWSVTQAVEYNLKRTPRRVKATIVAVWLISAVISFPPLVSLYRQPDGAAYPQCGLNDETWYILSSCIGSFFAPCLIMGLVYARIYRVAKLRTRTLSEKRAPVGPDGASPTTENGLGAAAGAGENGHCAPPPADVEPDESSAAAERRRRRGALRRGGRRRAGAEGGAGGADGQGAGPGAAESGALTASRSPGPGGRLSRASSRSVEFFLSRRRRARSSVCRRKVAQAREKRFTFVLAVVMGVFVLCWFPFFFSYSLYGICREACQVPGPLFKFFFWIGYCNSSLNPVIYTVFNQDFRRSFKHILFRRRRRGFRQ

[4] = target: Sodium-dependent serotonin transporter (Homo sapiens, UniProt P31645); assay: Displacement of [3H]paroxetine from 5HTT receptor
Sodium-dependent serotonin transporter, sequence (P31645 whole entry): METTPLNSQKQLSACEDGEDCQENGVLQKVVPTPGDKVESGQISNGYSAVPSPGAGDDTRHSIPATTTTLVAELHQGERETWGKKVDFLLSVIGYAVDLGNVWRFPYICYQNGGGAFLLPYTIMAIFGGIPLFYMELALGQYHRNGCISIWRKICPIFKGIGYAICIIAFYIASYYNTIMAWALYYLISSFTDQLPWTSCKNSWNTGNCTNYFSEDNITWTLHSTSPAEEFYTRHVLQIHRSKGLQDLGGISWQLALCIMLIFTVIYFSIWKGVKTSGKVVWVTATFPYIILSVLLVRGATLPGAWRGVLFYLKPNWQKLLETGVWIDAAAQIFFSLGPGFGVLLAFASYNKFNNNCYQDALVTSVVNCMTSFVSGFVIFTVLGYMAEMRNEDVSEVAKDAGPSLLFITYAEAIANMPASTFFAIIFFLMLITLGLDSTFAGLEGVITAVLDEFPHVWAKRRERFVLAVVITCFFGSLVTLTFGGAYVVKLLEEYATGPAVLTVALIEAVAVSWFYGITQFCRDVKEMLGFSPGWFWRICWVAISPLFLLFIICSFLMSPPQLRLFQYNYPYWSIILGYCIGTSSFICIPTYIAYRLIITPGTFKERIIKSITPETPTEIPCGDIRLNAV

| SMILES | remaining at 0.5 h [1] | remaining at 1.5 h [2] | Ki [3] | Ki [4] |
| --- | --- | --- | --- | --- |
| [11CH3]N1CC2C(=NO[C@H]2CN2CCN(C/C=C/c3ccccc3)CC2)c2ccccc21 (some centres undefined) | 35% | 21% |  |  |
| CN1CC2C(=NO[C@H]2CN2CCN(C/C=C/c3ccccc3)CC2)c2ccccc21 (some centres undefined) |  |  | 4.5 nM | 16 nM |
